Consider 1 compound from patent publication US20250388564A1, “METHODS OF MANUFACTURING PYRIDAZINONE COMPOUNDS” (Edgewise Therapeutics, Inc., priority 2022, published 2025).

A short description of the series: Solubility of Compound IX in solvents (Table 1). It is filed as physicochemical. To be noted: for solubility: organic solvent or mixture.

Broadly, the solubility is the concentration that dissolves in the medium under given conditions.

≈ marks a conversion by molar mass, not a printed value.

As for `O=c1ccc(-c2cnc(OCC(F)(F)F)nc2)n[nH]1` [Compound IX, 6-[2-(2,2,2-trifluoroethoxy)pyrimidin-5-yl]-2,3-dihydropyridazin-3-one], the solubility is, setting by setting: (1,4-dioxane, solvent 1,4-dioxane (entry 8)) 2.9 mg/mL (≈ 10.7 mM); (ACN, solvent ACN (entry 6)) 1.5 mg/mL (≈ 5.51 mM); (DCE, solvent DCE (entry 1)) 0.15 mg/mL (≈ 0.551 mM); (DCM, solvent DCM (entry 17)) 0.3 mg/mL (≈ 1.1 mM); (DMA, solvent DMA (entry 19)) 13 mg/mL (≈ 47.8 mM); (DME, solvent DME (entry 4)) 3.26 mg/mL (≈ 12 mM). Besides, the solubility was 10 mg/mL (≈ 36.7 mM) (DME, solvent DME (entry 21)); 21 mg/mL (≈ 77.2 mM) (DMF, solvent DMF (entry 18)); 45 mg/mL (≈ 165 mM) (DMSO, solvent DMSO (entry 10)); 0.7 mg/mL (≈ 2.57 mM) (EA, solvent EA (entry 16)); 1 mg/mL (≈ 3.67 mM) (EtOH, solvent EtOH (entry 12)); 0.1 mg/mL (≈ 0.367 mM) (MTBE, solvent MTBE (entry 15)). Besides, the solubility was determined as 2.5 mg/mL (≈ 9.18 mM) (MeOH, solvent MeOH (entry 11)); 44 mg/mL (≈ 162 mM) (NMP, solvent NMP (entry 20)); 2.73 mg/mL (≈ 10 mM) (THF, solvent THF (entry 5)); 1.59 mg/mL (≈ 5.84 mM) (acetone, solvent Acetone (entry 2)); 0.5 mg/mL (≈ 1.84 mM) (i-PrOH, solvent i-PrOH (entry 13)); 0.1 mg/mL (≈ 0.367 mM) (t-BuOH, solvent t-BuOH (entry 14)). The solubility (thietane 1,1-dioxide, solvent thietane 1,1-dioxide (entry 3)) was 6.35 mg/mL (≈ 23.3 mM). The “solubility (in words)” value (overall statement on Table 1) is “limited solubility”.
